In patent US20230159931A1, “TARGETING THE PALMOTYLATION/DEPALMOTYLATION CYCLE TO TREAT INFLAMMATORY DISEASES” (CORNELL UNIVERSITY, priority 2020, published 2023):
“Also recorded” adds a separate entry of the source.

Key:
[1] = system: TH17 cell differentiation; assay: TH17 cell differentiation of mouse splenocytes by flow cytometry (CD4- and IL-17-positive cells); format: cell-based; conditions: cytokine cocktail and different concentrations of ML349 for 4 days
Protocol: FIGS. 3A-3E. The STAT3 palmitoylation-depalmitoylation cycle promotes TH17 cell differentiation. (A) DHHC7 promotes phosphorylation of wild-type STAT3, but not of the C108S mutant, in mouse splenocytes. Left, STAT3 and p-STAT3 blots; right, quantification of the relative p-STAT3 levels. (B) TH17 cell differentiation was quantified in the splenocyte samples in A by flow cytometry. […] Mouse splenocytes were treated with a cytokine cocktail (3 ng ml^−1 TGF-β, 40 ng ml^−1 IL-6, 30 ng ml^−1 IL-23, 20 ng ml^−1 TNF and 10 ng ml^−1 IL-1β) and different concentrations of ML349 for 4 days, then collected and analysed by flow cytometry to detect CD4- and IL-17-positive cells. (D) DHHC7 knockout in splenocytes inhibits TH17 cell differentiation. Wild-type and DHHC7-knockout mouse splenocytes were treated with a cytokine cocktail for 4 days to initiate differentiation, then the cells were collected and analyse by flow cytometry to detect CD4- and IL-17-positive cells. (E) Left, STAT3 and p-STAT3 blots of wild-type and DHHC7-knockout splenocytes. Right, quantification of the relative p-STAT3 levels. Data are mean±s.e.m. **P<0.01.
Splenocytes were isolated from mice by classic methods. […]
For FACS analysis, flow cytometry was performed using 1×10^6 cells per sample. […] The cells were detected by Attune Flow Cytometer (Thermo Fisher) and analysed with FCS Express 6 software (De Novo Software).

NZB/W F1 female mice = assay: Lupus nephrosis mouse model (proteinuria analysis); format: in vivo; conditions: 25 mg/Kg IP three times per week for 8 weeks, from 25-week age
Protocol: FIGS. 17A-17B. Lupus Nephrosis Mouse Model: APT2 inhibitor ML349 decreases protein concentration in the mouse urine. (A) Protein concentration in urine (all data points), (B) Protein concentration in urine (averaged, with error bars). NZB/W F1 female mice at 25-week were administered via IP injection with either vehicle solution (DMSO+PBS) or APT2 inhibitor ML349 at 25 mg/Kg three times per week for 8 weeks. After 4 weeks of treatment, mice were evaluated for lupus incidence weekly through proteinuria analysis by collecting the urines and measuring the protein concentrations in the urine.
NZB/W F1 female mice at 25-week were administered via IP injection with either vehicle solution (DMSO+PBS) or APT2 inhibitor ML349 at 25 mg/Kg three times per week for 8 weeks. After 4 weeks of treatment, mice were evaluated for lupus incidence weekly through proteinuria analysis by collecting the urines and measuring the protein concentrations in the urine. […] This was the first time that the inventors did this experiment and after the experiment began, the inventors noticed that at 25 weeks, the disease phenotype was already very severe. It is expected that if the ML349 treatment is begun earlier, the effect might be more obvious and significant.

[2] = system: STAT3 target genes (RORC and CCND1); assay: Expression of STAT3 target genes under TH17 differentiation conditions (qPCR); format: cell-based; conditions: mouse spleen cells
Protocol: Splenocytes were isolated from mice by classic methods. In brief, the excised spleen was sliced into small pieces and placed onto a strainer (352350, Thermo Fisher) attached to a 50 ml conical tube. The sliced spleen was pressed through the strainer using the plunger end of a syringe and the cells were washed through the strainer with excess 4° C. PBS. The cell suspension was centrifuged at 500 g for 5 min at 4° C. The cell pellet was suspended in 2 ml of red blood cell lysing buffer (R7757, Sigma) for 5 min at RT and diluted with 30 ml PBS. The cells were centrifuged at 500 g for 5 min at RT. The cell pellet was suspended in 20 ml of 37° C. DMEM media, mixed well with 10 ml of Percoll density gradient media (17089102, VWR) and centrifuged at 2,500 g for 5 min at RT. The collected cells were seeded in 37° C. RPMI 1640 medium (12633012, Gibco) supplemented with 10% FBS at 5×10^6 cells per ml. Splenocytes were cultured under TH17-polarizing conditions: 3 ng ml^−1 TGF-β (100-21, PeproTech), 40 ng ml^−1 IL-6 (200-06, PeproTech), 30 ng ml^−1 IL-23 (200-23, PeproTech), 20 ng ml^−1 tumour necrosis factor (TNF) (300-01A, PeproTech) and 10 ng ml^−1 IL-1β (200-01B, PeproTech). […]
Because STAT3 is important for TH17 cell differentiation, the inventors evaluated whether the palmitoylation-depalmitoylation cycle of STAT3 promotes the generation of TH17 cells from mouse spleen cells. […]

In the case of `COc1ccc(N2CCN(C(=O)c3cc4c(s3)-c3ccccc3S(=O)(=O)C4)CC2)cc1` [ML349], the “differentiation of TH17 cells” value [1] is reported as “significantly decreased; also recorded: decreases TH17 cell differentiation in a dose-dependent manner”, the “protein concentrations in the urine” value (NZB/W F1 female mice) is reported as “decrease” and the “expression of STAT3 target genes (RORC and CCND1)” value [2] is reported as “significantly decreased”.
